{
  "source": "paper PMC10410819",
  "about": "“Potential antihypertensive activity of novel peptides from green basil leaves” (BMC Complementary Medicine and Therapies, 2023)",
  "key": {"[1]": {"test_system": "L-NAME-treated male Wistar rats", "experiment": "Serum lipid profile, glucose, kidney and liver function and ORAC in L-NAME-treated rats", "format": "in vivo, rat", "details": "mean, 3 weeks oral gavage, lisinopril 10 mg/kg BW/day, peptides 30 mg/kg BW/day, n = 5", "procedure": "(§1) After 1 week of acclimation, 25 male Wistar rats were separated randomly into two groups of control rat (NC; n = 5) with distilled water and L-NAME-treated rat (n = 20). At this step, distilled water was orally gavaged to NC rat at 1 mL/100 g BW. L-NAME at a final concentration of 40 mg/kg BW in 1 mL distilled water was orally gavage to induce hypertension in rat at a dose of 40 mg/kg BW for 3 weeks. Thereafter, L-NAME treated rats were randomly classified into the following four groups: L-NAME untreated rat (HT; n = 5); L-NAME + lisinopril rat (HTD; n = 5); L-NAME + peptide 1 at 30 mg/kg rat (HTP1; n = 5); and L-NAME + peptide 2 at 30 mg/kg rat (HTP2; n = 5); for the remaining 3 weeks. NC (n = 5) was still orally gavaged with distilled water. The peptides were diluted in distilled water to obtain a final concentration of 30 mg/1 mL and immediately gavaged to rat at a dose of 30 mg/kg BW/day). Lisinopril was diluted in distilled water to obtain a final concentration of 10 mg/1 mL and immediately orally gavaged to rat at a dose of 10 mg/kg BW/day. At the end of the experiment, each rat was fasted for approximately 12–16 h and euthanized with CO2 inhalation. […] The separated serum was collected and preserved at − 80 °C until further analysis. Then, the liver, heart, spleen, and kidneys were collected, trimmed, washed with normal saline, wiped with filter paper, and weighed.\nOne thousand microlite of serum was used for measuring the lipid profiles, including total cholesterol, triglyceride (TG), low-density lipoprotein (LDL)-cholesterol (C), high-density lipoprotein (HDL)-C, glucose levels, kidney (blood urea nitrogen and creatinine concentrations) and liver function [alanine aminotransaminase (ALT), aspartate transaminase (AST), and alkaline phosphatase ([…])] parameters using the Cobas 6800/8800 systems (Roche Group, Switzerland). ORAC in rat serum was measured with a fluorescent microplate reader at Ex/Em = 480/520 nm, as previously mentioned."}, "[2]": {"test_system": "L-NAME-treated male Wistar rats", "experiment": "Organ weights of L-NAME-treated rats", "format": "in vivo, rat", "details": "vs NC group; after 3 weeks treatment", "procedure": "as §1"}, "[3]": {"test_system": "L-NAME-treated male Wistar rats", "experiment": "Serum nitrite/nitrate in L-NAME-treated rats", "format": "in vivo, rat", "details": "mean ± standard error; 3 weeks oral gavage; lisinopril 10 mg/kg, peptide 30 mg/kg BW/day", "procedure": "as §1\n(§2) The levels of nitrite and nitrate, which are metabolites of nitric oxide (NO), were measured using 50 µl of rat serum utilizing the calorimetric method (Nitrite/nitrate Kit, Sigma-Aldrich, 2 Science Park Dr, SG), according to company protocol. Angiotensin II peptide levels were quantified by using EIA kits (Angiotensin II EIA, Sigma-Aldrich, MO, USA), as per the manufacturer’s instructions)."}, "[4]": {"test_system": "L-NAME-treated male Wistar rats", "experiment": "Platelet count and white blood cell levels of L-NAME-treated rats", "format": "in vivo, rat", "details": "effect of treatment in the L-NAME treated group; 3 weeks", "procedure": "as §1"}, "[5]": {"test_system": "L-NAME-treated male Wistar rats", "experiment": "Serum angiotensin II peptide (EIA) in L-NAME-treated rats", "format": "in vivo, rat", "details": "median (interquartile range); 3 weeks oral gavage; lisinopril 10 mg/kg, peptides 30 mg/kg BW/day", "procedure": "After 1 week of acclimation, 25 male Wistar rats were separated randomly into two groups of control rat (NC; n = 5) with distilled water and L-NAME-treated rat (n = 20). At this step, distilled water was orally gavaged to NC rat at 1 mL/100 g BW. L-NAME at a final concentration of 40 mg/kg BW in 1 mL distilled water was orally gavage to induce hypertension in rat at a dose of 40 mg/kg BW for 3 weeks. Thereafter, L-NAME treated rats were randomly classified into the following four groups: L-NAME untreated rat (HT; n = 5); L-NAME + lisinopril rat (HTD; n = 5); L-NAME + peptide 1 at 30 mg/kg rat (HTP1; n = 5); and L-NAME + peptide 2 at 30 mg/kg rat (HTP2; n = 5); for the remaining 3 weeks. NC (n = 5) was still orally gavaged with distilled water. The peptides were diluted in distilled water to obtain a final concentration of 30 mg/1 mL and immediately gavaged to rat at a dose of 30 mg/kg BW/day). […]\nas §2"}, "[6]": {"test_system": "L-NAME-treated male Wistar rats", "experiment": "Body weight of L-NAME-treated rats", "format": "in vivo, rat", "details": "vs L-NAME-treated rats; 3 weeks treatment", "procedure": "as §1"}, "ACE": {"biological_target": "T1, ACE (Homo sapiens, UniProt P12821)", "T1 construct": "purchased Dojindo Molecular Technology Inc., Kumamoto, Japan", "T1 sequence (P12821 30-1306, species assumed)": "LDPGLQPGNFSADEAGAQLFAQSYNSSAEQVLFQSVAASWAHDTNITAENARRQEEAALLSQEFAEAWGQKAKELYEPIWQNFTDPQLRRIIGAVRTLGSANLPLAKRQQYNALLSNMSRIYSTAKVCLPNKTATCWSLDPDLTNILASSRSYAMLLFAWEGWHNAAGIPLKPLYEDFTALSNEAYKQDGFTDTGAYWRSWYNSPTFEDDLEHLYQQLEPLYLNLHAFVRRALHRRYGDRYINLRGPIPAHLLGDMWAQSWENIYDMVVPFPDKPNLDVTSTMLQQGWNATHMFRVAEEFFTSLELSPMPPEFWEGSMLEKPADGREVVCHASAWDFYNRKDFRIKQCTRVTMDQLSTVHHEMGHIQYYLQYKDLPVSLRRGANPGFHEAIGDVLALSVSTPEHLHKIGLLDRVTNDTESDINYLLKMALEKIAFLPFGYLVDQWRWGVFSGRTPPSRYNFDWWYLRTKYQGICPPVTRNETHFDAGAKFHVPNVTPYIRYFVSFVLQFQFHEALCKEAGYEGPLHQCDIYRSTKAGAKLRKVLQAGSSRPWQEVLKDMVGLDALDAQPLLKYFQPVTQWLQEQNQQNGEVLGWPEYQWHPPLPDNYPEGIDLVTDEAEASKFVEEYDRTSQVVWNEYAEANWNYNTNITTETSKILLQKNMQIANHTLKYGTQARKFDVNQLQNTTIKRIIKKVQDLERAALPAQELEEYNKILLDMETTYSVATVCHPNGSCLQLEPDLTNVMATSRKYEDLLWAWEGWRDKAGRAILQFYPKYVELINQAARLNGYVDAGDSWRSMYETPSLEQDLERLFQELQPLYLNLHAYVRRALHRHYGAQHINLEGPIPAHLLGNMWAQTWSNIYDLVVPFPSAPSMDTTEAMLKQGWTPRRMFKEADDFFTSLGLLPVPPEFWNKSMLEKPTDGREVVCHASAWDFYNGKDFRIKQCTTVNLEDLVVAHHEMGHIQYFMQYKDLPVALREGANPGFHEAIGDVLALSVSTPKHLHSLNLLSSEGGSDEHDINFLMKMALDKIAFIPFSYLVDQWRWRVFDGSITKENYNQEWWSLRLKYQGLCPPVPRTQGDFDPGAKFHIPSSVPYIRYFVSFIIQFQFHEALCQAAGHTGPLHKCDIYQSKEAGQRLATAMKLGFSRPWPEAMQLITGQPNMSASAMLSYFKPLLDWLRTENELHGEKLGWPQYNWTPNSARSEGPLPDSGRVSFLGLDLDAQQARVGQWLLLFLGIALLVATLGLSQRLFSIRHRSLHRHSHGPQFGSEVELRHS", "experiment": "ACE inhibitory activity assay kit", "format": "biochemical", "details": "synthetic peptides; captopril positive control; read-out: IC50 ACE inhibition", "procedure": "ACE inhibitory activity assay kit (Dojindo Molecular Technology Inc., Kumamoto, Japan) was used for the measurement of ACE inhibition in proteins derived from basil leaves before and after digestion according to the company manual. Briefly, 10 µl of each sample, substrate buffer, and enzyme mixture were mixed and incubated in 96-well plate at 37 °C for 1 h before measuring ACE inhibition at 450 nm of absorption (A). The ACE inhibitory activity was calculated and calculated as follows: inhibitory activity (%) = [(Awithout sample − Awith sample)/(Awithout sample − Ablank)] × 100."}, "[7]": {"biological_target": "Angiotensin-converting enzyme (UniProt P12821)", "sequence (P12821 30-1256)": "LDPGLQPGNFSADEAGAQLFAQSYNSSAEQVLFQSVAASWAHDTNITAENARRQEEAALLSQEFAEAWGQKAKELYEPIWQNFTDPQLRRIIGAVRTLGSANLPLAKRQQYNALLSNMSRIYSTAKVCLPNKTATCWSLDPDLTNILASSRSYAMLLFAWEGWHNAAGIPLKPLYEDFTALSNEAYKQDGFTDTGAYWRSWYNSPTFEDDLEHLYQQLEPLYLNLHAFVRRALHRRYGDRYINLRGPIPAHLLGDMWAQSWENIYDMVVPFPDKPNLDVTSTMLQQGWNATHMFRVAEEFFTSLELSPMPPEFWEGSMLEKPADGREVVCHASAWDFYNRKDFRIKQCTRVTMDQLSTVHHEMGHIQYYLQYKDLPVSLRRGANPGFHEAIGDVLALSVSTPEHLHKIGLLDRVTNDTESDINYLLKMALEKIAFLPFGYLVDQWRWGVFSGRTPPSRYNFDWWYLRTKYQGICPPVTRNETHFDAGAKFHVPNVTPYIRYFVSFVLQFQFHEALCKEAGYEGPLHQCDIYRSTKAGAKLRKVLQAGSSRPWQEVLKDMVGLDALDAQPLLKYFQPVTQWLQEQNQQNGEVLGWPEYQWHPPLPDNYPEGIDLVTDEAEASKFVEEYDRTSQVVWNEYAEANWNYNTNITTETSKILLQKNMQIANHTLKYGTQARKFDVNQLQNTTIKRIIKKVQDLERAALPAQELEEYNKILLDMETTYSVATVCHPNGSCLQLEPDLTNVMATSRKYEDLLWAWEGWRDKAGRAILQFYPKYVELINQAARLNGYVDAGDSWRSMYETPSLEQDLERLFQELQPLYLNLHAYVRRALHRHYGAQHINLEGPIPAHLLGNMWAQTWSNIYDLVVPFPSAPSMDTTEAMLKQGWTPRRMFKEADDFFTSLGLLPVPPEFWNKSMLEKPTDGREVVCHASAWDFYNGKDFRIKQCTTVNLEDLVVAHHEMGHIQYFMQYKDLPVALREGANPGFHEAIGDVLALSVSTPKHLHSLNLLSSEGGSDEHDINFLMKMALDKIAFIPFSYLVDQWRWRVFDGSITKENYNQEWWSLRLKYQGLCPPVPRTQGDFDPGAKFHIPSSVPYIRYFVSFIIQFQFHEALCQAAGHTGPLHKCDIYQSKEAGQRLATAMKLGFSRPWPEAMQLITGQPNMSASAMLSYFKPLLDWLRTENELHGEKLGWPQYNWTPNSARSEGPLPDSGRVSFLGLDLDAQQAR"}},
  "note": "Residues, ends and D or L forms follow the SMILES beside them. No end group written: not given here.",
  "data": [
    {"molecule": "NCCCC[C@H](N[C@@H](CCc1ccccc1)C(=O)O)C(=O)N1CCC[C@H]1C(=O)O", "note": "[Lisinopril]", "values": [
      {"measurement": "ORAC", "setting": "[1]; rat serum", "result": 0.19, "unit": "µmol TE/dl"},
      {"measurement": "Cho/HDL", "setting": "[1]; serum ratio", "result": 2.69},
      {"measurement": "LDL/HDL", "setting": "[1]; serum ratio", "result": 0.22},
      {"measurement": "ALP", "setting": "[1]; serum", "result": 129.75, "unit": "U/L"},
      {"measurement": "ALT", "setting": "[1]; serum", "result": 41.50, "unit": "U/L"},
      {"measurement": "AST", "setting": "[1]; serum", "result": 67.75, "unit": "U/L"},
      {"measurement": "BUN", "setting": "[1]; serum", "result": 19.83, "unit": "mg/dL"},
      {"measurement": "Chol", "setting": "[1]; serum", "result": 86.25, "unit": "mg/dL"},
      {"measurement": "Glucose", "setting": "[1]; serum", "result": 263.00, "unit": "mg/dL"},
      {"measurement": "HDL", "setting": "[1]; serum", "result": 32.00, "unit": "mg/dL"},
      {"measurement": "LDL", "setting": "[1]; serum", "result": 7.00, "unit": "mg/dL"},
      {"measurement": "Tri", "setting": "[1]; serum", "result": 179.25, "unit": "mg/dL"},
      {"measurement": "VLDL", "setting": "[1]; serum", "result": 35.75, "unit": "mg/dL"},
      {"measurement": "weight of the livers", "setting": "[2]", "result": "significantly lower"},
      {"measurement": "serum concentration of nitrate", "setting": "[3]", "result": "15.05 ± 1.95", "unit": "ng/µL"},
      {"measurement": "serum concentration of nitrite", "setting": "[3]", "result": "16.17 ± 2.99", "unit": "ng/µL"},
      {"measurement": "serum concentration of total nitrate and nitrite (NOx)", "setting": "[3]", "result": "31.22 ± 4.94", "unit": "ng/µL"},
      {"measurement": "platelet count and white blood cell levels", "setting": "[4]", "result": "did not affect"},
      {"measurement": "serum concentration of AGE II", "setting": "[5]", "result": "5.19 (4.82) pg/mL"},
      {"measurement": "effect on rat BWs", "setting": "[6]", "result": "not significantly affected"}
    ]},
    {"molecule": "N[C@@H](Cc1ccc(O)cc1)C(=O)N[C@@H](CO)C(=O)N[C@@H](Cc1ccccc1)C(=O)O", "note": "[Tyr-Ser-Phe] (H-Tyr-Ser-Phe-OH; N-terminus and C-terminus assumed)", "values": [
      {"measurement": "IC50", "setting": "ACE", "result": 44.2, "unit": "µM"}
    ]},
    {"molecule": "DLSSAP [Asp-Leu-Ser-Ser-Ala-Pro]", "values": [
      {"measurement": "IC50", "setting": "ACE", "result": 4.75, "unit": "µM"},
      {"measurement": "ALP", "setting": "[1]; serum", "result": 135.00, "unit": "U/L"},
      {"measurement": "ALT", "setting": "[1]; serum", "result": 31.50, "unit": "U/L"},
      {"measurement": "AST", "setting": "[1]; serum", "result": 67.00, "unit": "U/L"},
      {"measurement": "BUN", "setting": "[1]; serum", "result": 19.70, "unit": "mg/dL"},
      {"measurement": "weight of the livers", "setting": "[2]", "result": "significantly lower"}
    ]},
    {"molecule": "DSVSASP [Asp-Ser-Val-Ser-Ala-Ser-Pro]", "values": [
      {"measurement": "IC50", "setting": "ACE", "result": 117, "unit": "µM"},
      {"measurement": "ALP", "setting": "[1]; serum", "result": 159.00, "unit": "U/L"},
      {"measurement": "ALT", "setting": "[1]; serum", "result": 38.50, "unit": "U/L"},
      {"measurement": "AST", "setting": "[1]; serum", "result": 74.00, "unit": "U/L"},
      {"measurement": "BUN", "setting": "[1]; serum", "result": 20.33, "unit": "mg/dL"},
      {"measurement": "weight of the livers", "setting": "[2]", "result": "significantly lower"}
    ]},
    {"molecule": "EGSGKGVR [Glu-Gly-Ser-Gly-Lys-Gly-Val-Arg]", "values": [
      {"measurement": "IC50", "setting": "ACE", "result": 87.2, "unit": "µM"}
    ]},
    {"molecule": "HCGDGDAPY [His-Cys-Gly-Asp-Gly-Asp-Ala-Pro-Tyr]", "values": [
      {"measurement": "IC50", "setting": "ACE", "result": 103, "unit": "µM"}
    ]},
    {"molecule": "HVLSA [His-Val-Leu-Ser-Ala]", "values": [
      {"measurement": "IC50", "setting": "ACE", "result": 10, "unit": "µM"}
    ]},
    {"molecule": "LDSKHEAP [Leu-Asp-Ser-Lys-His-Glu-Ala-Pro]", "values": [
      {"measurement": "IC50", "setting": "ACE", "result": 121, "unit": "µM"}
    ]},
    {"molecule": "PTTKTNVPPHF [Pro-Thr-Thr-Lys-Thr-Asn-Val-Pro-Pro-His-Phe]", "values": [
      {"measurement": "IC50", "setting": "ACE", "result": 119, "unit": "µM"}
    ]},
    {"molecule": "Tyr-Ser-Phe (peptide)", "values": [
      {"measurement": "IC50 (µM) ACE inhibition (ACE inhibitory activity assay kit, absorbance at 450 nM)", "setting": "[7]", "result": 44.2, "unit": "µM"}
    ]},
    {"molecule": "HVLSA", "note": "[His-Val-Leu-Ser-Ala]", "values": [
      {"measurement": "IC50 (µM) ACE inhibition (ACE inhibitory activity assay kit, absorbance at 450 nM)", "setting": "[7]", "result": 10, "unit": "µM"}
    ]},
    {"molecule": "EGSGKGVR", "note": "[Glu-Gly-Ser-Gly-Lys-Gly-Val-Arg]", "values": [
      {"measurement": "IC50 (µM) ACE inhibition (ACE inhibitory activity assay kit, absorbance at 450 nM)", "setting": "[7]", "result": 87.2, "unit": "µM"}
    ]},
    {"molecule": "PTTKTNVPPHF", "note": "[Pro-Thr-Thr-Lys-Thr-Asn-Val-Pro-Pro-His-Phe]", "values": [
      {"measurement": "IC50 (µM) ACE inhibition (ACE inhibitory activity assay kit, absorbance at 450 nM)", "setting": "[7]", "result": 119, "unit": "µM"}
    ]},
    {"molecule": "DLSSAP", "note": "[Asp-Leu-Ser-Ser-Ala-Pro]", "values": [
      {"measurement": "IC50 (µM) ACE inhibition (ACE inhibitory activity assay kit, absorbance at 450 nM)", "setting": "[7]", "result": 4.75, "unit": "µM"}
    ]},
    {"molecule": "HCGDGDAPY", "note": "[His-Cys-Gly-Asp-Gly-Asp-Ala-Pro-Tyr]", "values": [
      {"measurement": "IC50 (µM) ACE inhibition (ACE inhibitory activity assay kit, absorbance at 450 nM)", "setting": "[7]", "result": 103, "unit": "µM"}
    ]},
    {"molecule": "DSVSASP", "note": "[Asp-Ser-Val-Ser-Ala-Ser-Pro]", "values": [
      {"measurement": "IC50 (µM) ACE inhibition (ACE inhibitory activity assay kit, absorbance at 450 nM)", "setting": "[7]", "result": 117, "unit": "µM"}
    ]},
    {"molecule": "LDSKHEAP", "note": "[Leu-Asp-Ser-Lys-His-Glu-Ala-Pro]", "values": [
      {"measurement": "IC50 (µM) ACE inhibition (ACE inhibitory activity assay kit, absorbance at 450 nM)", "setting": "[7]", "result": 121, "unit": "µM"}
    ]}
  ]
}
